Test [1] addresses T1, adenosine receptor A1 (Homo sapiens, UniProt P30542).
T1 construct: host or cells: CHO
T1 sequence (P30542 1-326): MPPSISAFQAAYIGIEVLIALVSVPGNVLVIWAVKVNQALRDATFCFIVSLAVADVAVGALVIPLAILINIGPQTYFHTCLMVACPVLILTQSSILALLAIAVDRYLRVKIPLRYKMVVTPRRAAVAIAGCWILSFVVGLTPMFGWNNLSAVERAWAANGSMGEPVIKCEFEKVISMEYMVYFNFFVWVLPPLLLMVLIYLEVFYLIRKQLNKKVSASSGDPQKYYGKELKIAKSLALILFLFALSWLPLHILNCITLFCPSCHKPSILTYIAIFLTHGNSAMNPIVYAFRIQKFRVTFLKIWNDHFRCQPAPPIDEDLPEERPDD
Kind of test: cAMP experiment on Gi-coupled adenosine receptor A1 (CHO). The note with it: cAMP accumulation, NECA EC80 + forskolin; read-out: IC50 (nM) CHO cells (ADORA1). It is filed as cell-based. The procedure:
In this experiment, a CHO cell strain stably expressing the adenosine receptor Al was taken as a study object (PerkinElmer, ES-010-C) for the experiment. […] A solution system for cell inoculation was 10 μL of cAMP experimental buffer. […] Likewise, 10 mM test compound was also subjected to 3-fold gradient dilution in 100% DMSO. 1 mM forskolin (Sigma, F3917) was prepared with 100% DMSO. The gradient-diluted reference compound and test compound and the 1 mM forskolin were added to a 384-well compound plate (Labcyte, PP-0200). 10 nL of the 1 mM forskolin per well and 10 nL of the gradient-diluted reference agonist NECA per well were transferred to a test plate containing cells by using Echo (Labcyte, 550), and the test plate was incubated for 30 minutes at 37° C. 5 μL of Eu-cAMP tracer working solution and 5 μL of ULight-anti-cAMP working solution (PerkinElmer, TRF0263) were added to the test plate per well, and the test plate was incubated for 30 minutes at 25° C. […] 1000×EC80 NECA was prepared with 100% DMSO. 10 nL of the reference inhibitor DPCPX gradient-diluted per well and 10 nL of the test compound gradient-diluted per well per well were transferred to a test plate containing the cells, and the test plate was incubated for 20 minutes at 25° C. 10 nL of 1000×EC80 NECA per well and 10 nL of 1 mM forskolin per well were transferred to the test plate The test plate was incubated for 30 minutes at 37° C. 5 μL of Eu-cAMP tracer working solution and 5 μL of ULight-anti-cAMP working solution were added to the test plate per well, and the test plate was incubated for 30 minutes at 25° C. The fluorescence signal ratio of each well in the test plate was read, and the IC50 value of the compound was calculated by using the output data of the reference inhibitor and test compound and the concentration of the compound.
Background: Changes in cAMP serve as a functional read-out for many G protein-coupled receptors.

Test [2] concerns the target T2, adenosine receptor A2b (Homo sapiens, UniProt P29275).
T2 construct: host or cells: HEK293
T2 sequence (P29275 1-332): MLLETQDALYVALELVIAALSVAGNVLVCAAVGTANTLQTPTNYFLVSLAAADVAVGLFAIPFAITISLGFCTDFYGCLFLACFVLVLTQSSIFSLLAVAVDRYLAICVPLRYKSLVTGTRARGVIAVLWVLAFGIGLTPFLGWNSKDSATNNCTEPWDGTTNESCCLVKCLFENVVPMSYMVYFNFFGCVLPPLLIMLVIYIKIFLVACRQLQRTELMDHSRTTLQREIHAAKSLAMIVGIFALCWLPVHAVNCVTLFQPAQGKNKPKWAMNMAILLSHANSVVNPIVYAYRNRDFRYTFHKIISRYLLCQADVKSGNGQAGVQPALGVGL
Briefly: cAMP experiment on Gs-coupled adenosine receptor A2b (HEK293). It is filed as cell-based. As to conditions: cAMP accumulation, NECA EC80; read-out: IC50 (nM) HEK293 cells (ADORA2B). The procedure: In this experiment, a HEK293 cell line stably expressing the adenosine receptor A2b was taken as a study object (PerkinElmer, ES-013-C) for the experiment. […] A solution system for cell inoculation was 10 μL of cAMP experimental buffer. […] Similarly, 10 mM test compound was also subjected to 3-fold gradient dilution in 100% DMSO. The gradient-diluted reference compound and test compound were added to a 384-well compound plate (Labcyte, PP-0200). 10 nL of the gradient-diluted reference agonist NECA per well was transferred to a test plate containing cells by using Echo (Labcyte, 550), and the test plate was incubated for 30 minutes at 37° C. 5 μL of Eu-cAMP tracer working solution and 5 μL of ULight-anti-cAMP working solution (PerkinElmer, TRF0263) were added to the test plate per well, and the test plate was incubated for 30 minutes at 25° C. […] 1000×EC80 NECA was prepared with 100% DMSO. […] The test plate was incubated for 20 minutes at 25° C., and then 10 nL of the 1000×EC80 NECA per well was transferred to the test plate. The test plate was incubated for 30 minutes at 37° C. 5 μL of Eu-cAMP tracer working solution and 5 μL of ULight-anti-cAMP working solution were added to the test plate per well, and the test plate was incubated for 30 minutes at 25° C. The fluorescence signal ratio of each well in the test plate was read, and the IC50 value of the compound was calculated by using the output data of the reference inhibitor and test compound and the concentration of the compound.

Each structure is given as a SMILES string.

The term IC50 denotes the concentration that gives 50% inhibition. As to `COCCNc1ccc(CCNc2nc(N)n3nc(-c4ccco4)nc3n2)cc1` [Compound 27, 2-(furan-2-yl)-N5-(4-((2-methoxyethyl)amino)phenethyl)-[1,2,4]triazolo[1,5-a][1,3,5]triazine-5,7-diamine], the IC50 in test [1] was found to be 679 nM; in test [2], 307 nM.

In the case of `Nc1nc(NCCc2ccc(NC3COC3)cc2)nc2nc(-c3ccco3)nn12` [Compound 22, 2-(furan-2-yl)-N5-(4-(oxetan-3-ylamino)phenethyl)-[1,2,4]triazolo[1,5-a][1,3,5]triazine-5,7-diamine], the concentration for half-maximal inhibition (IC50) in test [1] was found to be 928 nM; in test [2] it was 380 nM.

As for `CCn1c(=O)c2c(nc(/C=C/c3ccc(OC)c(OC)c3)n2C)n(CC)c1=O` [Istradefylline, reference compound], the IC50 in test [1] is 1200 nM.

Turning to `Cn1nnc(-c2ccc(CCNc3nc(N)n4nc(-c5ccco5)nc4n3)cc2)n1` [Compound 40, N5-(4-(2-methyl-2H-tetrazol-5-yl)phenethyl)-2-(furan-2-yl)-[1,2,4]triazolo[1,5-a][1,3,5]triazine-5,7-diamine], the IC50 was 388 nM in test [1] and 343 nM in test [2].

The values are drawn from patent publication US20230048888A1, “USE OF TRIAZOLOTRIAZINE DERIVATIVE IN TREATMENT OF DISEASES” (ZHEJIANG VIMGREEN PHARMACEUTICALS, LTD., priority 2019, published 2023).
